Converted amounts (≈) assume the structure as drawn. Read-outs that look alike come from different tables or passages of the source.
Experiments:
DNA gyrase from E. coli = biological target: T1, DNA gyrase from E. coli (Escherichia coli, UniProt P0AES6); assay: supercoiling HTS plate assay; type: biochemical; details: IC50 [nM] E. coli DNA gyrase
T1 construct: purchased Inspiralis
Experimental: (§1) All compounds were tested for their inhibitory activities against DNA gyrase and topo IV from E. coli in supercoiling and relaxation high-throughput plate assays, respectively. Our new series of inhibitors were then tested against a panel of Gram-positive and Gram-negative bacteria.
(§2) Seven concentrations of the inhibitors were used to determine IC50 values which were then calculated with GraphPad Prism 6.0 software. Three independent measurements were performed to determine IC50 values, and mean values are reported as the final result.

topo IV from E. coli = biological target: T2, topo IV from E. coli (Escherichia coli, UniProt P20083); assay: relaxation HTS plate assay; type: biochemical
T2 construct: purchased Inspiralis
Experimental: as §1, §2

A. baumannii ATCC 17978 = assay: MIC broth microdilution (CLSI); type: cell-based; details: Acinetobacter baumannii, ATCC17978
Experimental: (§3) Cation-adjusted Mueller Hinton broth 2 (MHBII) was used for bacterial growth under standard laboratory conditions and for antimicrobial susceptibility tests. MHBII broth was prepared by dissolving 22 g of MHBII powder [containing beef extract (3 g), acid hydrolysate of casein (17.5 g), and starch (1.5 g); Becton Dickinson and Co.] in 1 L of water. To prepare MHBII agar, 14 g of agar (Bacto; Molar Chemicals) was added to 1 L of broth.
(§4) Bacterial strains were inoculated onto MHBII agar plates and grown overnight at 37 °C. Next, three individual colonies from each strain were inoculated into 1 mL of MHBII medium and propagated at 37 °C overnight, with agitation at 250 rpm. For Enterococcus sp., the cells were plated in brain–heart infusion [(BHI) medium] agar plates, and BHI broth was used to determine the MICs. […] Following the dilutions, each well was seeded with 5 × 10^4 bacterial cells (in 100 μL final volume). Each measurement was performed in three parallel replicates, and to avoid possible edge effects in the microwell plates, the outside rows (A, H) were filled with sterile medium. Following the inoculations, the plates were covered with the lids and wrapped in polyethylene plastic bags, to minimize evaporation but to allow O2 transfer. […] After incubation, the OD600 of each well was measured using a microplate reader (Synergy 2; Biotek).

S. aureus ATCC 29213 = assay: MIC broth microdilution (CLSI); type: cell-based; details: Staphylococcus aureus, ATCC29213
Experimental: as §3, §4

[1] = test system: Enterococcus faecalis ATCC 29212; assay: MIC broth microdilution (CLSI); type: cell-based, E. faecalis; details: Enterococcus faecalis, ATCC29212; read-out: MIC
Experimental: as §3, with “MICs (Tables 1 and S1–S3) were determined with a standard serial broth microdilution technique according to Clinical and Laboratory Standards Institute (CLSI) guidelines.[45] Cation-adjusted” for “Cation-adjusted”
(§5) Bacterial strains were inoculated onto MHBII agar plates and grown overnight at 37 °C. Next, three individual colonies from each strain were inoculated into 1 mL of MHBII medium and propagated at 37 °C overnight, with agitation at 250 rpm. For Enterococcus sp., the cells were plated in brain–heart infusion [(BHI) medium] agar plates, and BHI broth was used to determine the MICs. […] The highest final DMSO concentration in the experiments was 0.64% (in the case of the 64 μg/mL concentration of the inhibitor). Following the dilutions, each well was seeded with 5 × 10^4 bacterial cells (in 100 μL final volume). Each measurement was performed in three parallel replicates, and to avoid possible edge effects in the microwell plates, the outside rows (A, H) were filled with sterile medium. Following the inoculations, the plates were covered with the lids and wrapped in polyethylene plastic bags, to minimize evaporation but to allow O2 transfer. The plates were incubated at 37 °C under continuous shaking at 150 rpm for 18 h. After incubation, the OD600 of each well was measured using a microplate reader (Synergy 2; Biotek). The MICs were defined as the antibiotic concentrations which inhibited the growth of the bacterial cultures; that is, the drug concentration where the average OD600 increment of the three technical replicates was below 1.5-fold the background OD increment.

E. coli ATCC 25922 = assay: MIC broth microdilution (CLSI); type: cell-based; details: Escherichia coli, ATCC25922; read-out: MIC
Experimental: as §3, with “MICs (Tables 1 and S1–S3) were determined with a standard serial broth microdilution technique according to Clinical and Laboratory Standards Institute (CLSI) guidelines.[45] Cation-adjusted” for “Cation-adjusted”
as §5

E. faecium ATCC 700221 = assay: MIC broth microdilution (CLSI); type: cell-based
Experimental: as §3, with “MICs (Tables 1 and S1–S3) were determined with a standard serial broth microdilution technique according to Clinical and Laboratory Standards Institute (CLSI) guidelines.[45] Cation-adjusted” for “Cation-adjusted”
as §5

[2] = test system: Enterobacter cloacae spp. cloacae ATCC 13047; assay: MIC broth microdilution (CLSI); type: cell-based; details: Enterobacter cloacae, ATCC13047; read-out: MIC
Experimental: as §3, with “MICs (Tables 1 and S1–S3) were determined with a standard serial broth microdilution technique according to Clinical and Laboratory Standards Institute (CLSI) guidelines.[45] Cation-adjusted” for “Cation-adjusted”
as §5

K. pneumoniae ATCC 10031 = assay: MIC broth microdilution (CLSI); type: cell-based; details: Klebsiella pneumoniae, ATCC10031; read-out: MIC
Experimental: as §3, with “MICs (Tables 1 and S1–S3) were determined with a standard serial broth microdilution technique according to Clinical and Laboratory Standards Institute (CLSI) guidelines.[45] Cation-adjusted” for “Cation-adjusted”
as §5

P. aeruginosa ATCC 27853 = assay: MIC broth microdilution (CLSI); type: cell-based; details: Pseudomonas aeruginosa, ATCC27853; read-out: MIC
Experimental: as §3, with “MICs (Tables 1 and S1–S3) were determined with a standard serial broth microdilution technique according to Clinical and Laboratory Standards Institute (CLSI) guidelines.[45] Cation-adjusted” for “Cation-adjusted”
as §5

[3] = test system: S. aureus (MRSA) ATCC 43300; assay: MIC broth microdilution (CLSI); type: cell-based; details: Staphylococcus aureus
Experimental: as §3, with “MICs (Tables 1 and S1–S3) were determined with a standard serial broth microdilution technique according to Clinical and Laboratory Standards Institute (CLSI) guidelines.[45] Cation-adjusted” for “Cation-adjusted”
as §5

[4] = test system: S. aureus (VISA) ATCC 700699; assay: MIC broth microdilution (CLSI); type: cell-based; details: Staphylococcus aureus; read-out: MIC
Experimental: as §3, with “MICs (Tables 1 and S1–S3) were determined with a standard serial broth microdilution technique according to Clinical and Laboratory Standards Institute (CLSI) guidelines.[45] Cation-adjusted” for “Cation-adjusted”
as §5

physchem = type: physicochemical; details: phosphate-buffered saline (PBS)
Experimental: For the PBS, 2.38 g of disodium hydrogen phosphate dodecahydrate, 0.19 g of potassium dihydrogen phosphate, and 8.0 g of sodium chloride were added to distilled water (900 mL), and the solution was mixed overnight. […] Samples were prepared by weighing the exact mass of solid compounds (about 1 mg), and then, the appropriate volume of PBS was added to reach the final concentration of ∼1 mg/mL. […] The supernatant was diluted 3× with a 1:1 mixture of 0.1% TFA in water and acetonitrile and analyzed by HPLC. For the 7-point calibration curves, concentrated stock solutions of the compounds were prepared at concentrations of 10 and 0.5 mM in DMSO, which were diluted with a 1:1 mixture of 0.1% TFA in water and acetonitrile to the desired final concentrations and analyzed by HPLC. Results are given in μM as an average value of two independent experiments. For details on calibration curves, concentrations, analytical method, and HPLC method, see the Supporting Information.
Thermodynamic solubility assay
To determine thermodynamic solubility of compounds in PBS, calibration curves for the assayed compounds were prepared using seven concentrations. First, DMSO stock solutions of compounds at 10 mM and 0.5 mM concentration were prepared and then diluted (0.1% TFA in […]
Quality control (QC) samples were diluted from stock solutions with a 1:1 mixture of 0.1% TFA in water and acetonitrile to final concentrations of 60 µM, 20 µM, and 2 µM (6 µM, 2 µM, and 0.2 µM for 7f or 0.6 µM, 0.2 µM, and 0.02 µM for 7g).
Analytical reversed-phase UHPLC analyses were performed on Thermo Scientific Dionex UltiMate 3000 modular system (Thermo Fisher Scientific Inc., MA, USA). Waters Acquity UPLC® HSS C18 SB column (2.1 × 50 mm, 1.8 μm; Waters, Milford, MA, USA) was used at T […]
Mobile phase consisted of 0.1% trifluoroacetic acid in ultrapure water (solvent A) and acetonitrile […]
The obtained data was processed in Chromeleon CDS software (Thermo Fisher Scientific Inc., […]
Analytical method was tested for accuracy, precision and linear rang. Accuracy was […]
(or 2 or 0.2) µM and 60 (or 6 or 0.6) µM) to their true values and expressed in (%). Values were […]
Method repeatability was determined by calculating the RSD from the separately prepared and analysed quality control samples (n = 3). […] Linearity of the […]
method (1 (or 0.1 or 0.01) µM to 100 (or 10 or 1) µM) was evaluated from the 7-point calibration […]
Solubility was determined in two independent experiments and results were calculated in […]

[5] = read-out: IC50 [nM] E. coli TopoIV
[6] = read-out: MIC [µg/mL] (A. baumannii ATCC 17978)
[7] = read-out: MIC [µg/mL](S. aureus ATCC 29213)
[8] = Enterococcus faecium, ATCC700221, read-out: MIC
[9] = read-out: MIC [µg/mL](S. aureus MRSA ATCC4330)

T2 sequence (P0AFI2 whole entry): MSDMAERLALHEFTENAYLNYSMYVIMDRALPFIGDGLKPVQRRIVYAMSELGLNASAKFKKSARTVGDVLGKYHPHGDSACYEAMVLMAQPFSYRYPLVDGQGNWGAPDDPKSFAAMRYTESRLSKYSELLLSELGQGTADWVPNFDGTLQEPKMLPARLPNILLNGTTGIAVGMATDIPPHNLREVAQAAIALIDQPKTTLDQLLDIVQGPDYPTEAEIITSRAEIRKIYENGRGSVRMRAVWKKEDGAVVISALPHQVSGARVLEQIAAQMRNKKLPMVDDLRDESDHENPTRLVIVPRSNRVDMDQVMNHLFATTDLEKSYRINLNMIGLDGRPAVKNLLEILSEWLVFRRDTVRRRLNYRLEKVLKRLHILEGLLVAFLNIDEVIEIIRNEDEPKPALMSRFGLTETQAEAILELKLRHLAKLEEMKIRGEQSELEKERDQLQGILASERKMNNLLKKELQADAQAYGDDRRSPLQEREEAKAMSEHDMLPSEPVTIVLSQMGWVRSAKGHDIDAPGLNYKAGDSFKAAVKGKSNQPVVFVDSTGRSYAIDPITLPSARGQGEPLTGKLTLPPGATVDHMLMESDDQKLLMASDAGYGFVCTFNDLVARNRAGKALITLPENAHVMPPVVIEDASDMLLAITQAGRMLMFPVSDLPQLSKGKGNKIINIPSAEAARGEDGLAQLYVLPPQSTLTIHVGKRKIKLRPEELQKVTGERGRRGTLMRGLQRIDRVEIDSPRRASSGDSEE
T2 sequence (P20083 whole entry): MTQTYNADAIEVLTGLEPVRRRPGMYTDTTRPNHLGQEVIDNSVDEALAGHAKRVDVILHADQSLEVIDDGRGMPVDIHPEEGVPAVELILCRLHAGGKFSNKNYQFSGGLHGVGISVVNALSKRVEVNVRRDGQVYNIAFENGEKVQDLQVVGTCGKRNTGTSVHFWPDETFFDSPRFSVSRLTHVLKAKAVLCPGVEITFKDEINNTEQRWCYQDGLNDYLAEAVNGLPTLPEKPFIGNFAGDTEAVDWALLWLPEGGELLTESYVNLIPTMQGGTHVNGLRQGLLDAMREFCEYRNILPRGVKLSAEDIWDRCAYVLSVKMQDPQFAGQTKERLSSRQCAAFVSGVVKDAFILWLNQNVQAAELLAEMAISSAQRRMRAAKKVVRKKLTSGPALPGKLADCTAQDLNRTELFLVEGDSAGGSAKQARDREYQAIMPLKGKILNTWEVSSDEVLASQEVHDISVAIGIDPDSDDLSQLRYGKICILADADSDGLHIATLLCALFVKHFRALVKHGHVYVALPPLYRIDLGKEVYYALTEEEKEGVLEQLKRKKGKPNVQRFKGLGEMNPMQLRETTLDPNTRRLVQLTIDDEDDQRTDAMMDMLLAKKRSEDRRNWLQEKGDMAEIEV

SMILES	IC50 (DNA gyrase from E. coli) [nM]	IC50 (topo IV from E. coli; [5]) [nM]	MIC (A. baumannii ATCC 17978; read-out: MIC) [µg/mL]	MIC (A. baumannii ATCC 17978; [6]) [µg/mL]	MIC (S. aureus ATCC 29213; read-out: MIC) [µg/mL]	MIC (S. aureus ATCC 29213; [7]) [µg/mL]	MIC [1] [µg/mL]	MIC (E. coli ATCC 25922) [µg/mL]	MIC (E. faecium ATCC 700221; [8]) [µg/mL]	MIC [2] [µg/mL]	MIC (K. pneumoniae ATCC 10031) [µg/mL]	MIC (P. aeruginosa ATCC 27853) [µg/mL]	MIC ([3]; read-out: MIC) [µg/mL]	MIC [3, 9] [µg/mL]	MIC [4] [µg/mL]	IC50 (topo IV from E. coli; IC50) [nM]	further results
Cc1[nH]c(C(=O)Nc2nc3c(N4CCCC4)cc(C(=O)O)cc3s2)c(Cl)c1Cl [7j, 2-(3,4-Dichloro-5-methyl-1H-pyrrole-2-carboxamido)-4-(pyrrolidin-1-yl)benzo[d]thiazole-6-carboxylic Acid]	< 10	68 ± 16	4	4	0.25	0.25	0.125	16	0.25	> 32	8	4	0.125	0.125	0.0625	–	IC50 (topo IV from E. coli; read-out: IC50): < 100 nM
Cc1[nH]c(C(=O)Nc2nc3c(N4CCOC4=O)cc(C(=O)O)cc3s2)c(Cl)c1Cl [7m, 2-(3,4-Dichloro-5-methyl-1H-pyrrole-2-carboxamido)-4-(2-oxooxazolidin-3-yl)benzo[d]thiazole-6-carboxylic Acid]	< 10	180 ± 16	> 64	> 64	64	64	4	> 64	4	> 64	32	> 64	64	64	8	–	MIC (E. faecium ATCC 700221): 4 µg/mL
Cc1[nH]c(C(=O)Nc2nc3c(N4CCC5(CC4)OCCO5)cc(C(=O)O)cc3s2)c(Cl)c1Cl [7r, 2-(3,4-Dichloro-5-methyl-1H-pyrrole-2-carboxamido)-4-(1,4-dioxa-8-azaspiro[4.5]decan-8-yl)benzo[d]thiazole-6-carboxylic Acid]	17 ± 11	–	8	8	< 0.0312	< 0.0312	< 0.0312	4	< 0.0312	32	2	8	< 0.0312	< 0.0312	< 0.0312	–	solubility thermodynamic at 24 h (physchem; pH 7.4, PBS pH 7.4, read-out: thermodynamic solubility, Experiment 1): 26.7 µM (≈ 13.7 µg/mL); solubility thermodynamic at 24 h (physchem; pH 7.4, PBS pH 7.4, read-out: thermodynamic solubility, Experiment 2): 27.3 µM (≈ 13.9 µg/mL); solubility thermodynamic at 24 h (physchem; pH 7.4, thermodynamic solubility (pH = 7.4), PBS, 37 °C, 24 h, mean of two): 27 µM (≈ 13.8 µg/mL)
Cc1[nH]c(C(=O)Nc2nc3c(N4CC[S+]([O-])CC4)cc(C(=O)O)cc3s2)c(Cl)c1Cl [7s, 2-(3,4-Dichloro-5-methyl-1H-pyrrole-2-carboxamido)-4-(1-oxidothiomorpholino)benzo[d]thiazole-6-carboxylic Acid]	< 10	–	> 64	> 64	> 64	> 64	16	> 64	16	> 64	32	> 64	64	64	> 64	< 100	IC50 (topo IV from E. coli; IC50 [nM] E. coli TopoIV): 72 ± 3 nM
COCCCNc1cc(C(=O)O)cc2sc(NC(=O)c3[nH]c(C)c(Cl)c3Cl)nc12.N [8c, 2-(3,4-Dichloro-5-methyl-1H-pyrrole-2-carboxamido)-4-((3-methoxypropyl)amino)benzo[d]thiazole-6-carboxylic Acid]	15 ± 5	–	2	2	< 0.0312	< 0.0312	> 0.0312	8	–	> 64	2	8	< 0.0312	< 0.0312	–	190 ± 6	–

Reference: publication PMC10041525, “New Dual Inhibitors of Bacterial Topoisomerases with Broad-Spectrum Antibacterial Activity and In Vivo Efficacy against Vancomycin-Intermediate Staphylococcus aureus” (Journal of Medicinal Chemistry, 2023)
